± gives the standard deviation of the averaged measurements.
What was measured:
Test in all cases: level (log10 ratio to DMSO vehicle control); higher = higher biomarker level / cell amount than vehicle control
[1] = compound: O=C(O)C=C(C(F)(F)F)C(F)(F)F [3,3-Bis(trifluoromethyl)-2-propenoic acid] (in DMSO)
Protocol: (§1)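 BioMAP Diversity Plus panel of 12 human primary cell co-culture systems (3C, 4H, LPS, SAg, BT, BF4T, BE3C, CASM3C, HDF3CGF, KF3CT, MyoF, Mphg). Compounds were added 1 h before stimulation and left for 24 h (MyoF 48 h; BT 72 h for soluble read-outs or 6 d for IgG). Biomarkers were read by ELISA, cytotoxicity by SRB, PBMC viability and proliferation by Alamar Blue. Each well value was divided by the mean of 8 DMSO control wells on the same plate and log10 transformed; duplicate blinded samples were tested at 4 concentrations.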

[2] = compound: NS(=O)(=O)C(F)(F)C(F)(F)C(F)(F)C(F)(F)C(F)(F)C(F)(F)C(F)(F)C(F)(F)F [Perfluorooctanesulfonamide] (in DMSO)
Protocol: as §1

[3] = compound: CCOC(=O)CC(=O)C(F)(F)C(F)(F)F [Ethyl pentafluoropropionyl acetate] (in DMSO)
Protocol: as §1

[4] = compound: O=S(=O)(O)C(F)(F)C(F)(F)C(F)(F)C(F)(F)C(F)(F)C(F)(F)C(F)(F)F [Perfluoroheptanesulfonic acid] (in DMSO)
Protocol: as §1

Octafluoroadipic acid = compound: O=C(O)C(F)(F)C(F)(F)C(F)(F)C(F)(F)C(=O)O [Octafluoroadipic acid] (in DMSO)
Protocol: as §1

[5] = compound: OCC(F)(F)OC(F)(F)C(F)(F)OC(F)(F)C(F)(F)OC(F)(F)CO [1H,1H,11H,11H-Perfluorotetraethylene glycol] (in DMSO)
Protocol: as §1

Test System | level (log10) ([1]; 6700 nM) | level (log10) ([1]; 20000 nM) | level (log10) ([1]; 60000 nM) | level (log10) ([2]; 6700 nM) | level (log10) ([2]; 20000 nM) | level (log10) ([3]; 6700 nM) | level (log10) ([3]; 20000 nM) | level (log10) ([3]; 60000 nM) | level (log10) ([4]; 1500 nM) | level (log10) ([4]; 4400 nM) | level (log10) ([4]; 13000 nM) | level (log10) ([4]; 40000 nM) | level (log10) (Octafluoroadipic acid; 6700 nM) | level (log10) (Octafluoroadipic acid; 20000 nM) | level (log10) (Octafluoroadipic acid; 60000 nM) | level (log10) ([5]; 6700 nM) | level (log10) ([5]; 20000 nM) | level (log10) ([5]; 60000 nM)
BF4T:MMP-9 | -0.0155 ± 0.0021 | -0.0185 ± 0.018 | -0.004 ± 0.021 | -0.006 ± 0.025 | -0.113 ± 0.018 | 0.002 ± 0.038 | -0.007 ± 0.044 | -0.007 ± 0.044 | 0.0155 ± 0.08 | -0.031 ± 0.033 | -0.0335 ± 0.054 | -0.003 ± 0.041 | -0.0075 ± 0.047 | -0.0065 ± 0.036 | 0.0165 ± 0.026 | -0.007 ± 0.013 | -0.004 ± 0.013 | -0.0405 ± 0.033
BF4T:PAI-I | 0.0055 ± 0.0021 | 0.001 ± 0.0042 | -0.0055 ± 0.021 | -0.004 ± 0.011 | -0.038 ± 0.0099 | 0.0015 ± 0.011 | 0.004 ± 0.011 | -0.0025 ± 0.011 | 0.0205 ± 0.00071 | 0.01 | -0.0225 ± 0.011 | -0.0075 ± 0.025 | -0.0045 ± 0.026 | -0.011 ± 0.013 | 0.007 ± 0.0071 | -0.0035 ± 0.0092 | -0.0335 ± 0.00071 | -0.069 ± 0.016
BF4T:SRB | 0.0015 ± 0.005 | -0.006 ± 0.011 | 0.0045 ± 0.0092 | -0.009 ± 0.0028 | -0.052 | -0.004 | -0.0045 ± 0.0035 | -0.002 ± 0.0057 | 0.0075 ± 0.018 | -0.008 ± 0.0014 | -0.0125 ± 0.0021 | -0.016 ± 0.021 | -0.0145 ± 0.0064 | -0.011 ± 0.0071 | -0.0065 ± 0.0035 | -0.0035 ± 0.0021 | -0.0065 ± 0.0021 | -0.0345 ± 0.033
BF4T:tPA | -0.0965 ± 0.035 | -0.12 ± 0.026 | -0.11 ± 0.029 | -0.059 ± 0.013 | 0.006 ± 0.02 | -0.0045 ± 0.0092 | -0.0035 ± 0.0092 | -0.0145 ± 0.011 | 0.0235 ± 0.052 | -0.0065 ± 0.0064 | -0.0165 ± 0.025 | 0.0225 ± 0.039 | -0.007 ± 0.0014 | -0.0065 ± 0.025 | 0.0035 ± 0.005 | -0.036 ± 0.0028 | -0.0685 ± 0.043 | -0.201 ± 0.035
BF4T:uPA | -0.0175 ± 0.0078 | -0.0195 ± 0.012 | -0.0135 ± 0.013 | 0.014 ± 0.016 | 0.005 ± 0.034 | -0.0145 ± 0.023 | -0.0045 ± 0.013 | -0.0175 ± 0.025 | 0.001 ± 0.018 | -0.0035 ± 0.012 | -0.017 ± 0.0014 | 0.0095 ± 0.0064 | -0.0115 ± 0.023 | -0.0175 ± 0.03 | -0.003 | -0.0125 ± 0.018 | -0.0155 ± 0.013 | -0.0215 ± 0.0064
BT:B cell Proliferation | -0.0145 ± 0.0021 | -0.0385 ± 0.0035 | -0.121 ± 0.0064 | 0.0205 ± 0.0064 | 0.024 ± 0.028 | 0.012 ± 0.017 | -0.006 ± 0.011 | 0.0035 ± 0.022 | 0.031 ± 0.041 | 0.0315 ± 0.057 | -0.0185 ± 0.021 | 0.0115 ± 0.053 | -0.014 ± 0.0028 | -0.023 ± 0.016 | 0.005 ± 0.031 | 0.0215 ± 0.0021 | -0.0175 ± 0.021 | -0.051 ± 0.011
BT:PBMC Cytotoxicity | 0.0065 ± 0.049 | 0.001 ± 0.02 | -0.009 ± 0.025 | 0.0175 ± 0.0064 | 0.03 ± 0.0099 | -0.0045 ± 0.026 | 0.011 ± 0.0099 | -0.0095 ± 0.029 | -0.0045 ± 0.021 | -0.009 ± 0.011 | -0.0015 ± 0.013 | 0.0145 ± 0.054 | -0.0015 ± 0.029 | 0.001 ± 0.0014 | 0.0025 ± 0.019 | 0.019 ± 0.0042 | -0.018 ± 0.03 | -0.0425 ± 0.028
BT:Secreted IgG | 0.0155 ± 0.005 | -0.0375 ± 0.052 | -0.597 ± 0.16 | -0.018 ± 0.0085 | -0.141 ± 0.1 | 0.024 ± 0.014 | 0.025 ± 0.0071 | 0.013 ± 0.0014 | 0.0285 ± 0.0021 | 0.0265 ± 0.0064 | -0.006 ± 0.033 | 0.002 ± 0.045 | 0.0285 ± 0.033 | 0.028 ± 0.027 | 0.0435 ± 0.011 | -0.093 ± 0.0099 | -0.135 ± 0.0071 | -0.374 ± 0.055
BT:sIL-2 | -0.297 ± 0.042 | -0.529 ± 0.02 | -0.648 ± 0.072 | -0.0115 ± 0.049 | 0.0005 ± 0.028 | -0.058 ± 0.099 | -0.0055 ± 0.04 | -0.007 ± 0.069 | -0.0445 ± 0.037 | 0.0215 ± 0.039 | -0.0005 ± 0.013 | -0.0565 ± 0.036 | -0.006 ± 0.15 | -0.012 ± 0.021 | -0.0495 ± 0.061 | 0.0295 ± 0.12 | 0.0865 ± 0.1 | 0.005 ± 0.13
BT:sIL-6 | 0.035 ± 0.037 | -0.0575 ± 0.026 | -0.182 ± 0.018 | -0.0455 ± 0.023 | -0.0485 ± 0.026 | 0.019 ± 0.099 | 0.046 ± 0.11 | -0.053 ± 0.1 | 0.004 ± 0.013 | 0.03 ± 0.013 | -0.027 ± 0.011 | -0.139 ± 0.057 | 0.013 ± 0.083 | 0.021 ± 0.016 | -0.102 ± 0.14 | -0.025 ± 0.014 | -0.101 ± 0.048 | -0.302 ± 0.017
BT:sIL-17A | 0.0535 ± 0.043 | -0.246 ± 0.1 | -0.482 ± 0.0028 | -0.0315 ± 0.16 | 0.0435 ± 0.052 | -0.088 ± 0.0014 | -0.0195 ± 0.032 | -0.0685 ± 0.081 | 0.0335 ± 0.076 | 0.113 ± 0.035 | 0.026 ± 0.14 | -0.078 ± 0.058 | -0.0875 ± 0.044 | 0.0075 ± 0.064 | 0.128 ± 0.092 | -0.075 ± 0.069 | -0.105 ± 0.032 | -0.337 ± 0.18
BT:sIL-17F | -0.258 ± 0.031 | -0.426 ± 0.16 | -0.672 ± 0.021 | -0.0365 ± 0.084 | -0.0785 ± 0.11 | 0.0355 ± 0.0092 | 0.0155 ± 0.0035 | -0.012 ± 0.093 | -0.0155 ± 0.096 | 0.0185 ± 0.025 | 0.0535 ± 0.064 | -0.004 ± 0.067 | -0.027 ± 0.0028 | -0.009 ± 0.078 | 0.0275 ± 0.076 | -0.0185 ± 0.015 | -0.176 | -0.396 ± 0.044
BT:sTNF-alpha | -0.047 ± 0.034 | -0.184 ± 0.04 | -0.637 ± 0.093 | -0.045 ± 0.13 | -0.11 ± 0.15 | -0.124 ± 0.17 | 0.017 ± 0.072 | -0.0495 ± 0.07 | -0.022 ± 0.018 | -0.043 ± 0.0042 | -0.048 ± 0.014 | -0.101 ± 0.0099 | 0.0535 ± 0.17 | 0.028 ± 0.17 | 0.116 ± 0.02 | 0.0045 ± 0.066 | -0.033 ± 0.09 | -0.234 ± 0.044
LPS:CCL2/MCP-1 | 0.0015 ± 0.00071 | -0.0145 ± 0.0035 | -0.02 ± 0.03 | -0.0035 ± 0.013 | 0.0165 ± 0.0021 | -0.025 ± 0.0085 | -0.0345 ± 0.018 | -0.0125 ± 0.018 | 0.0045 ± 0.037 | -0.0455 ± 0.026 | -0.005 ± 0.042 | 0.014 ± 0.1 | -0.0015 ± 0.044 | -0.0045 ± 0.026 | 0.0205 ± 0.0078 | -0.0125 ± 0.0035 | -0.033 ± 0.028 | -0.0405 ± 0.025
LPS:CD40 | -0.055 ± 0.024 | -0.061 ± 0.047 | -0.184 | -0.0635 ± 0.018 | -0.115 ± 0.0042 | 0.015 ± 0.0014 | -0.0245 ± 0.015 | -0.0335 ± 0.0064 | 0.035 ± 0.075 | 0.029 ± 0.096 | 0.0625 ± 0.1 | 0.001 ± 0.14 | -0.0035 ± 0.04 | -0.005 ± 0.0071 | -0.0245 ± 0.0064 | -0.0565 ± 0.026 | -0.058 ± 0.054 | -0.126 ± 0.035
LPS:CD62E/E-Selectin | -0.013 ± 0.021 | -0.025 ± 0.0071 | -0.0345 ± 0.005 | -0.015 ± 0.023 | 0.018 ± 0.016 | 0.015 ± 0.0085 | 0.0055 ± 0.018 | 0.0095 ± 0.039 | 0.0155 ± 0.015 | -0.0065 ± 0.0035 | -0.0075 ± 0.026 | 0.0095 ± 0.042 | 0.002 ± 0.023 | -0.008 ± 0.0057 | 0.0085 ± 0.022 | 0.004 ± 0.025 | -0.012 ± 0.016 | -0.0165 ± 0.016
